Patent US9034792B2, “Antifungal compositions” (DSM IP ASSETS B.V., priority 2011, dated 2015)
Values joined by “and” are separate entries in the source; they are usually repeats but may differ in a detail not shown here. Equal entries are not always repeated.

Experiments:
Type in all cases: in vivo
Fusarium proliferatum = assay: Treatment of wounded bananas inoculated with Fusarium proliferatum; conditions: 20° C.
Description: Four organic, unripe (green) bananas were used per treatment. The peel of each banana was wounded thrice using a cork borer according to the method described by de Lapeyre de Bellaire and Dubois (1987). Subsequently, each wound was inoculated with 15 μl of a Fusarium proliferatum suspension containing 1×10^5 of spores/ml. […] In addition, the antifungal compositions comprised 1.00% (w/w) methylhydroxyethylcellulose (MHEC), 0.40% (w/w) xanthan gum, 0.20% (w/w) anti-foaming agent, 0.30% (w/w) citric acid, 0.39% (w/w) lactic acid and 0.11% (w/w) potassium sorbate. The pH of the compositions was 4. […] The treated, unripe bananas were incubated in a closed box in the dark at 20° C. and a relative air humidity of 95%, which was obtained in the presence of a saturated Na2HPO4 aqueous solution. During the first 10 days of incubation, a ripe (yellow) banana was included in the closed box to elevate the ethylene gas level and thus induce ripening of the treated, unripe bananas.
(§1) The expected antifungal activity (E in %) of the combined antifungal composition comprising both active ingredients was calculated according to the Colby equation (Colby, 1967): E=X+Y−[(X·Y)/100] wherein X and Y are the observed antifungal activities (in %) of the individual active ingredients X and Y, respectively. If the observed antifungal activity (O in %) of the combination exceeds the expected antifungal activity (E in %) of the combination and the synergy factor O/E is thus >1.0, the combined application of the active ingredients leads to a synergistic antifungal effect.
The degree of mould growth on the banana wounds was assessed according to the two methods described in Example 3.

Penicillium italicum = assay: Treatment of wounded mandarins inoculated with Penicillium italicum; conditions: 20° C., 250 ppm natamycin
Description: Ten fresh, organic mandarins were used per treatment. The peel of each mandarin was wounded once using a cork borer according to the method described by de Lapeyre de Bellaire and Dubois (1987). Subsequently, each wound was inoculated with 10 μl of a Penicillium italicum suspension containing 1×10^4 of spores/ml. […] The pH of the compositions was 4. A composition without natamycin or fluoxastrobin was used as control.
as §1, with “The treated mandarins were incubated in a closed box in the dark at 20° C. and assessed on mould growth after 10, 15, 19, 22 and 27 days of incubation. The antifungal activity (in %) of the individual active ingredients was determined by calculating the reduction in mould growth observed on the mandarins treated with the antifungal composition in comparison to the mould growth on the mandarins treated with the control composition. The” for “The”
A composition without natamycin or trifloxystrobin was used as control. The antifungal activity (in %) of the individual and combined active ingredients on mandarins was assessed after 8, 10 and 19 days of incubation according to the method described in Example 9.

Botrytis cinerea = assay: Treatment of wounded strawberries inoculated with Botrytis cinerea; conditions: 20° C.
Description: Twelve fresh, organic strawberries were used per treatment. Each strawberry was wounded with a 0.5 mm long cut and each wound was inoculated with 10 μl of a Botrytis cinerea suspension containing 1×10^5 of spores/ml. […] The antifungal composition also comprised 1.00% (w/w) methylhydroxyethylcellulose (MHEC), 0.40% (w/w) xanthan gum, 0.20% (w/w) anti-foaming agent, 0.30% (w/w) citric acid, 0.39% (w/w) lactic acid and 0.11% (w/w) potassium sorbate. The pH of the compositions was 4.
as §1, with “The treated strawberries were incubated in a closed box in the dark at 20° C. and assessed on mould growth after 4, 5, 7 and 8 days of incubation. […] The” for “The”, “effect. […]” for “effect.”

[1] = 21 days, 500 ppm natamycin, 1000 ppm fluoxastrobin or both
[2] = 27 days, 250 ppm natamycin, 500 ppm fluoxastrobin or both
[3] = 27 days, 500 ppm natamycin, 1000 ppm fluoxastrobin or both
[4] = 10 days, 500 ppm fluoxastrobin or both
[5] = 15 days, 500 ppm fluoxastrobin or both
[6] = 19 days, 500 ppm fluoxastrobin or both
[7] = 22 days, 500 ppm fluoxastrobin or both
[8] = 27 days, 500 ppm fluoxastrobin or both
[9] = 3 days, 50 ppm natamycin, 250 ppm trifloxystrobin or both
[10] = 5 days, 50 ppm natamycin, 250 ppm trifloxystrobin or both
[11] = 5 days, 250 ppm natamycin, 500 ppm trifloxystrobin or both
[12] = 5 days, 500 ppm natamycin, 1000 ppm trifloxystrobin or both
[13] = 7 days, 250 ppm natamycin, 500 ppm trifloxystrobin or both
[14] = 7 days, 500 ppm natamycin, 1000 ppm trifloxystrobin or both
[15] = 8 days, 250 ppm natamycin, 500 ppm trifloxystrobin or both
[16] = 8 days, 500 ppm natamycin, 1000 ppm trifloxystrobin or both
[17] = 9 days, 250 ppm natamycin, 500 ppm trifloxystrobin or both
[18] = 27 days, 500 ppm natamycin, 1000 ppm trifloxystrobin or both
[19] = 8 days, 400 ppm trifloxystrobin or both
[20] = 10 days, 400 ppm trifloxystrobin or both
[21] = 19 days, 400 ppm trifloxystrobin or both

**Q.** What does the source list for `CO/N=C(/C1=NOCCO1)c1ccccc1Oc1ncnc(Oc2ccccc2Cl)c1F` [Fluoxastrobin, fluoxastrobin]?
**A.** Number of moulded wounds/total number of 12 wounds (Fusarium proliferatum; [1]): 10 and 10/12; Observed antifungal activity O (%) (Fusarium proliferatum; [1]): 42%; Observed antifungal activity O (%) (Fusarium proliferatum; [2]): 31%; Number of moulded wounds/total number of 12 wounds (Fusarium proliferatum; [3]): 12 and 12/12; Observed antifungal activity O (%) (Fusarium proliferatum; [3]): 7%; Observed antifungal activity O (%) (Penicillium italicum; [4]): 28%; Observed antifungal activity O (%) (Penicillium italicum; [5]): 24%; Observed antifungal activity O (%) (Penicillium italicum; [6]): 6%; Observed antifungal activity O (%) (Penicillium italicum; [7]): 4%; Observed antifungal activity O (%) (Penicillium italicum; [8]): 0%

**Q.** Which results are given for `CON=C(C(=O)OC)c1ccccc1CON=C(C)c1cccc(C(F)(F)F)c1` [Trifloxystrobin, trifloxystrobin]?
**A.** Observed antifungal activity O (%) (Botrytis cinerea; [9]): 50%; Observed antifungal activity O (%) (Botrytis cinerea; [10]): 7%; Number of moulded strawberries/total number of 12 strawberries (Botrytis cinerea; [11]): 12 and 12/12; Number of moulded strawberries/total number of 12 strawberries (Botrytis cinerea; [12]): 12 and 12/12; Observed antifungal activity O (%) (Botrytis cinerea; [12]): 0%; Observed antifungal activity O (%) (Botrytis cinerea; [13]): 0%; Observed antifungal activity O (%) (Botrytis cinerea; [14]): 6%; Observed antifungal activity O (%) (Botrytis cinerea; [15]): 0%; Observed antifungal activity O (%) (Botrytis cinerea; [16]): 6%; Observed antifungal activity O (%) (Botrytis cinerea; [17]): 0%; Number of moulded wounds/total number of 12 wounds (Fusarium proliferatum; [18]): 10 and 10/12; Observed antifungal activity O (%) (Fusarium proliferatum; [18]): 75%; Observed antifungal activity O (%) (Penicillium italicum; [19]): 61%; Observed antifungal activity O (%) (Penicillium italicum; [20]): 42%; Observed antifungal activity O (%) (Penicillium italicum; [21]): 0%

**Q.** With natamycin as the molecule, how does the “Observed antifungal activity O (%)” value (Botrytis cinerea; [9]) read?
**A.** The value was 64%.

**Q.** And the “Observed antifungal activity O (%)” value (Botrytis cinerea; [10])?
**A.** The value was 17%.

**Q.** And the “Number of moulded strawberries/total number of 12 strawberries” value (Botrytis cinerea; [11])?
**A.** Its value is 12 and 12/12.

**Q.** And the “Number of moulded strawberries/total number of 12 strawberries” value (Botrytis cinerea; [12])?
**A.** Its value is 12 and 12/12.

**Q.** What about the “Observed antifungal activity O (%)” value (Botrytis cinerea; [12]) of the same molecule?
**A.** Its value is 31%.

**Q.** What about the “Observed antifungal activity O (%)” value (Botrytis cinerea; [13]) of the same molecule?
**A.** The value was 10%.

**Q.** And the “Observed antifungal activity O (%)” value (Botrytis cinerea; [14])?
**A.** Its value is 13%.

**Q.** And the “Observed antifungal activity O (%)” value (Botrytis cinerea; [15])?
**A.** The value was 2%.

**Q.** And the “Observed antifungal activity O (%)” value (Botrytis cinerea; [16])?
**A.** Its value is 0%.

**Q.** And the “Observed antifungal activity O (%)” value (Botrytis cinerea; [17])?
**A.** The value was 0%.

**Q.** And the “Number of moulded wounds/total number of 12 wounds” value (Fusarium proliferatum; [1])?
**A.** Its value is 6 and 6/12.

**Q.** And the “Observed antifungal activity O (%)” value (Fusarium proliferatum; [1])?
**A.** Its value is 78%.

**Q.** What about the “Observed antifungal activity O (%)” value (Fusarium proliferatum; [2]) of the same molecule?
**A.** Its value is 4%.

**Q.** What about the “Number of moulded wounds/total number of 12 wounds” value (Fusarium proliferatum; [3]) of the same molecule?
**A.** Its value is 12 and 12/12.

**Q.** And the “Observed antifungal activity O (%)” value (Fusarium proliferatum; [3])?
**A.** Its value is 63%.

**Q.** And the “Number of moulded wounds/total number of 12 wounds” value (Fusarium proliferatum; [18])?
**A.** Its value is 12 and 12/12.

**Q.** What about the “Observed antifungal activity O (%)” value (Fusarium proliferatum; [18]) of the same molecule?
**A.** Its value is 63%.

**Q.** What about the “Observed antifungal activity O (%)” value (Penicillium italicum; [19]) of the same molecule?
**A.** The value was 83%.

**Q.** And the “Observed antifungal activity O (%)” value (Penicillium italicum; [20])?
**A.** Its value is 54%.

**Q.** And the “Observed antifungal activity O (%)” value (Penicillium italicum; [4])?
**A.** The value was 54%.

**Q.** And the “Observed antifungal activity O (%)” value (Penicillium italicum; [5])?
**A.** The value was 19%.

**Q.** What about the “Observed antifungal activity O (%)” value (Penicillium italicum; [21]) of the same molecule?
**A.** Its value is 5%.

**Q.** And the “Observed antifungal activity O (%)” value (Penicillium italicum; [6])?
**A.** Its value is 5%.

**Q.** And the “Observed antifungal activity O (%)” value (Penicillium italicum; [7])?
**A.** Its value is 5%.

**Q.** What about the “Observed antifungal activity O (%)” value (Penicillium italicum; [8]) of the same molecule?
**A.** The value was 5%.
